{"source": "ChEMBL document CHEMBL3714720", "about": "“Inhibiting G-protein coupled receptor 6 kinase polypeptides” (2014)", "biological_target": "G protein-coupled receptor kinase 6 (Homo sapiens, UniProt P43250)", "sequence (P43250 whole entry)": "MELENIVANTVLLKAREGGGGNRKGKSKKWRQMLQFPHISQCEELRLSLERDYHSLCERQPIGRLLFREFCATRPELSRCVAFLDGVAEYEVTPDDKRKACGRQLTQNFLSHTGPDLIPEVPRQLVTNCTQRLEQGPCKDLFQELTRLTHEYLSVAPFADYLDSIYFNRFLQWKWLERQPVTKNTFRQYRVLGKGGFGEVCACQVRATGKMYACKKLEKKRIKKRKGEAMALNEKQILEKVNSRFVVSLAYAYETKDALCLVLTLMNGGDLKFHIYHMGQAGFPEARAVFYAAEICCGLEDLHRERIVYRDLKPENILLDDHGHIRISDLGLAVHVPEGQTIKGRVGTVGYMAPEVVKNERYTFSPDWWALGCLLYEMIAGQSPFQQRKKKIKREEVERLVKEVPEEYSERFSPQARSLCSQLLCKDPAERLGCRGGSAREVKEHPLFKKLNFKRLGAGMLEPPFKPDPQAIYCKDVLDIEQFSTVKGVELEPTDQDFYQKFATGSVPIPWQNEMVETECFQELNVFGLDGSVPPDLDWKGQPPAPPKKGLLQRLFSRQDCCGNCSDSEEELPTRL", "test": "Inhibition of human recombinant full-length GST-tagged human GRK6 using peptide substrate peptide-216 incubated for 7 hrs"}
{"compound": "COc1ccc(-c2nnc(SCC(=O)O)[nH]2)c(OC)c1OC", "values": [{"measurement": "IC50", "result": "> 100", "unit": "µM"}]}
{"compound": "COc1ccc(-c2nnc(SCC(=O)O)[nH]2)c(Cl)c1OC", "values": [{"measurement": "IC50", "result": "> 100", "unit": "µM"}]}
{"compound": "COc1cc([N+](=O)[O-])cc(-c2nnc(SCC(=O)O)[nH]2)c1O", "values": [{"measurement": "IC50", "result": 34.8, "unit": "µM"}]}
{"compound": "O=C(O)CSc1nnc(-c2cc([N+](=O)[O-])ccc2O)[nH]1", "values": [{"measurement": "IC50", "result": 14.1, "unit": "µM"}]}
{"compound": "COc1ccc(NC(c2ccccn2)c2ccc3cccnc3c2O)cc1", "note": "(centres undefined)", "values": [{"measurement": "IC50", "result": 10.3, "unit": "µM"}]}
{"compound": "Cc1cccc(-c2nnc(SCCC(=O)O)n2C)c1", "values": [{"measurement": "IC50", "result": "> 100", "unit": "µM"}]}
{"compound": "Cc1cccc(Oc2ccc(-c3nnc(SCC(=O)O)[nH]3)cc2[N+](=O)[O-])c1", "values": [{"measurement": "IC50", "result": 3.58, "unit": "µM"}]}
{"compound": "COc1cc(-c2nnc(SCC(=O)O)[nH]2)c([N+](=O)[O-])cc1OC", "values": [{"measurement": "IC50", "result": "> 100", "unit": "µM"}]}
{"compound": "Cc1coc(-c2ccccc2NS(=O)(=O)c2ccc(S(=O)(=O)N3CCCCCC3)cc2)c1", "values": [{"measurement": "IC50", "result": "> 60", "unit": "µM"}]}
{"compound": "O=C(O)COc1ccccc1-c1nnc(SCC(=O)O)[nH]1", "values": [{"measurement": "IC50", "result": "> 100", "unit": "µM"}]}
{"compound": "COc1ccc(OC)c(-c2nnc(SCC(=O)O)[nH]2)c1", "values": [{"measurement": "IC50", "result": "> 100", "unit": "µM"}]}
{"compound": "COc1cccc(-c2nnc(SCC(=O)O)[nH]2)c1OC", "values": [{"measurement": "IC50", "result": "> 100", "unit": "µM"}]}
{"compound": "COc1cc(OC)c(-c2nnc(SCC(=O)O)[nH]2)cc1OC", "values": [{"measurement": "IC50", "result": "> 100", "unit": "µM"}]}
{"compound": "Cc1cccc(-c2n[nH]c(SCC(N)=O)n2)c1", "values": [{"measurement": "IC50", "result": "> 100", "unit": "µM"}]}
{"compound": "COc1ccc(-c2nnc(SCC(=O)O)[nH]2)cc1[N+](=O)[O-]", "values": [{"measurement": "IC50", "result": 1.05, "unit": "µM"}]}
{"compound": "COc1ccc(-c2nnc(SCC(=O)O)[nH]2)c(OC)c1C", "values": [{"measurement": "IC50", "result": "> 100", "unit": "µM"}]}
{"compound": "CN1CCN(c2ccc(-c3nnc(SCC(=O)O)[nH]3)c(F)c2)CC1", "values": [{"measurement": "IC50", "result": "> 100", "unit": "µM"}]}
{"compound": "CN(C)c1ccc(-c2nnc(SCC(=O)O)[nH]2)cc1", "values": [{"measurement": "IC50", "result": "> 100", "unit": "µM"}]}
{"compound": "Cc1cccc(-c2nnc(SC(C)C(=O)O)n2C)c1", "note": "(centres undefined)", "values": [{"measurement": "IC50", "result": "> 100", "unit": "µM"}]}
{"compound": "COc1cc(O)cc(OC)c1-c1nnc(SCC(=O)O)[nH]1", "values": [{"measurement": "IC50", "result": "> 100", "unit": "µM"}]}
{"compound": "NC(=O)c1ccccc1-c1nnc(SCC(=O)O)[nH]1", "values": [{"measurement": "IC50", "result": "> 100", "unit": "µM"}]}
{"compound": "Cc1cccc(-c2nnc(SCCC(=O)O)[nH]2)c1", "values": [{"measurement": "IC50", "result": "> 100", "unit": "µM"}]}
{"compound": "Cc1cccc(-c2nnc(SCC(=O)N(C)C)[nH]2)c1", "values": [{"measurement": "IC50", "result": "> 100", "unit": "µM"}]}
{"compound": "COC(=O)c1ccccc1-c1nnc(SCC(=O)O)[nH]1", "values": [{"measurement": "IC50", "result": "> 100", "unit": "µM"}]}
{"compound": "COc1c(F)cccc1-c1nnc(SCC(=O)O)[nH]1", "values": [{"measurement": "IC50", "result": "> 100", "unit": "µM"}]}
{"compound": "COc1ccc([N+](=O)[O-])cc1-c1nnc(SCC(=O)O)[nH]1", "values": [{"measurement": "IC50", "result": 77.5, "unit": "µM"}]}
{"compound": "Cc1ccc(-c2nnc(SCC(=O)O)[nH]2)cc1[N+](=O)[O-]", "values": [{"measurement": "IC50", "result": 0.751, "unit": "µM"}]}
{"compound": "O=C(O)CSc1nnc(-c2cccc([N+](=O)[O-])c2O)[nH]1", "values": [{"measurement": "IC50", "result": "> 70", "unit": "µM"}]}
{"compound": "O=C(O)CSc1nnc(-c2cccc(C(=O)O)c2)[nH]1", "values": [{"measurement": "IC50", "result": "> 74", "unit": "µM"}]}
{"compound": "COc1cc(N(C)C)ccc1-c1nnc(SCC(=O)O)[nH]1", "values": [{"measurement": "IC50", "result": "> 100", "unit": "µM"}]}
{"compound": "Cc1cccc(-c2nnc(SCC(=O)O)n2C)c1", "values": [{"measurement": "IC50", "result": "> 100", "unit": "µM"}]}
{"compound": "O=C(O)CSc1nnc(-c2cc(C(=O)O)ccc2O)[nH]1", "values": [{"measurement": "IC50", "result": "> 100", "unit": "µM"}]}
{"compound": "CC(=O)CSc1nnc(-c2cccc(C)c2)[nH]1", "values": [{"measurement": "IC50", "result": "> 100", "unit": "µM"}]}
{"compound": "COc1cc(-c2nnc(SCC(=O)O)[nH]2)cc(F)c1O", "values": [{"measurement": "IC50", "result": 3.3, "unit": "µM"}]}
{"compound": "CN(C)CCCOc1ccccc1-c1nnc(SCC(=O)O)[nH]1", "values": [{"measurement": "IC50", "result": "> 100", "unit": "µM"}]}
{"compound": "COc1cccc(-c2nnc(SCC(=O)O)[nH]2)c1OCc1ccccc1", "values": [{"measurement": "IC50", "result": "> 100", "unit": "µM"}]}
{"compound": "COc1cccc(OC)c1-c1nnc(SCC(=O)O)[nH]1", "values": [{"measurement": "IC50", "result": "> 100", "unit": "µM"}]}
{"compound": "COc1cc(-c2nnc(SCC(=O)O)[nH]2)ccc1F", "values": [{"measurement": "IC50", "result": 4.52, "unit": "µM"}]}
{"compound": "COc1cc([N+](=O)[O-])ccc1-c1nnc(SCC(=O)O)[nH]1", "values": [{"measurement": "IC50", "result": "> 100", "unit": "µM"}]}
{"compound": "O=C(O)CSc1nnc(-c2ccccc2C(=O)O)[nH]1", "values": [{"measurement": "IC50", "result": "> 100", "unit": "µM"}]}
{"compound": "O=C(O)CSc1nnc(-c2ccccc2OCCN2CCCC2)[nH]1", "values": [{"measurement": "IC50", "result": "> 100", "unit": "µM"}]}
{"compound": "O=C(O)CSc1nnc(-c2ccccc2N2CCOCC2)[nH]1", "values": [{"measurement": "IC50", "result": "> 100", "unit": "µM"}]}
{"compound": "COc1cccc(O)c1-c1nnc(SCC(=O)O)[nH]1", "values": [{"measurement": "IC50", "result": "> 100", "unit": "µM"}]}
{"compound": "COC(=O)CSc1nnc(-c2cccc(C)c2)[nH]1", "values": [{"measurement": "IC50", "result": "> 100", "unit": "µM"}]}
